In patent EP3046573B1, “AMYLIN ANALOGUES” (Zealand Pharma A/S, priority 2013, dated 2015):
Numbered stars: 1 amine (or outer) side, 2 acyl side, 3 side chain; on linkers, the order of the positions; unused ones are H or OH. Bridge positions count the residues as written; N and C are the ends. Square brackets hold non-standard residues; d marks the D form. Peptide text beside a SMILES is read from it. * marks the point of attachment. C20 diacid = O=C(O)CCCCCCCCCCCCCCCCCCC(=O)*; γGlu = O=C(O)[C@H](CCC(=O)[*:2])N[*:1]; Hyp = O=C(O)[C@@H]1C[C@@H](O)CN1; NMeI = CC[C@H](C)[C@H](NC)C(=O)O; Sar = CNCC(=O)O

Tests used:
[1] = target: T1, human amylin receptor 3 (hAMYR3) consisting of hCTR2 co-expressed with human Receptor Activity Modifying Protein 3 (hRAMP3) (Homo sapiens, UniProt O60896+P30988); assay: hAMYR3 assay: induction of cAMP (AlphaScreen cAMP Assay kit) in COS7 cells expressing hAMYR3; type: cell-based; conditions: cAMP induction in COS7 cells expressing hAMYR3; average of a minimum of 3 determinations; read-out: hAMY R3 EC50
T1 construct: expressed in transfected cells
T1 sequence (P30988 25-474): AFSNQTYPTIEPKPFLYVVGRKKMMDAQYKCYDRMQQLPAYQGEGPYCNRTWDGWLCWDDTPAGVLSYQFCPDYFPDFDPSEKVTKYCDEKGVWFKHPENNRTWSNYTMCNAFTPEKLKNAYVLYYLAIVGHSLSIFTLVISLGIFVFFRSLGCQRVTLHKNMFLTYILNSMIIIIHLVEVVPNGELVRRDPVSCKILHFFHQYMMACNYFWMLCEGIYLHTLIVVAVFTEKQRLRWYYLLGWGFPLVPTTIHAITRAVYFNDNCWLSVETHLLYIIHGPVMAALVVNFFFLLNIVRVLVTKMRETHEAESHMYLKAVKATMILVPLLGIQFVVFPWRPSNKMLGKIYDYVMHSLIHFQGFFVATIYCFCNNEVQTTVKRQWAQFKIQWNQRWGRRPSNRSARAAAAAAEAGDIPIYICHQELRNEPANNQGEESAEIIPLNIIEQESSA
T1 sequence (O60896 24-148 partner): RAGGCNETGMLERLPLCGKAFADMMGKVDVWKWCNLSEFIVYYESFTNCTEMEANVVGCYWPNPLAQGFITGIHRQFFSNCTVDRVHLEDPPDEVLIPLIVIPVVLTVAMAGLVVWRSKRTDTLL
How it was run: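 Stable COS7 clone co-expressing hCTR2 and hRAMP3, stimulated 15 min at 37° C with increasing peptide in Tyrode buffer pH 7.4 with 100 µM IBMX and 0.1% casein. cAMP measured by AlphaScreen after lysis; EC50 and % efficacy versus pramlintide from 4PL fit.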

[2] = Assessment of physical stability: fibril formation detected with Thioflavin T (ThT), lag-time; type: physicochemical; conditions: 1 mg/ml peptide, 40 µM ThT, FND = Fibrillation not detected; for Fibrillation lag time (hours) pH 4.0 (Ac): 50 mM acetate buffer pH 4.0, 96 hours at 40°C; for Fibrillation lag time (hours) pH 7.0 (His): 50 mM histidine buffer pH 7.0, 96 hours at 40°C; for Fibrillation lag time (hours) pH 7.0 (Ph): 50 mM phosphate buffer pH 7.0, 96 hours at 40°C
How it was run: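 Test peptide at 1 mg/ml with 40 µM ThT in 50 mM phosphate (pH 7.0), 50 mM histidine (pH 7.0) or 50 mM acetate (pH 4.0), in triplicate, 40° C. for 96 h. Fluorescence read every 10 min after 300 s agitation. Lag-time (h) taken as intersection of linear fits to initial stable and growth phases.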

Row | EC50 [1] | Fibrillation lag time (hours) pH 4.0 (Ac) [2] | Fibrillation lag time (hours) pH 7.0 (His) [2] | Fibrillation lag time (hours) pH 7.0 (Ph) [2] | SMILES
1 | 0.65 nM | FND | FND | FND | CC[C@H](C)[C@@H](C(=O)N[C@@H](CC(C)C)C(=O)N[C@@H](CO)C(=O)N[C@@H](CO)C(=O)N[C@H](C(=O)N[C@@H](CCC(=O)O)C(=O)N[C@H](C(=O)NCC(=O)N[C@@H](CO)C(=O)N[C@@H](CCC(=O)O)C(=O)N[C@H](C(=O)N1CCC[C@H]1C(N)=O)[C@@H](C)O)C(C)C)[C@@H](C)O)N(C)C(=O)[C@H](C)NC(=O)CN(C)C(=O)[C@H](Cc1ccccc1)NC(=O)[C@H](CO)NC(=O)[C@H](CO)NC(=O)[C@H](CO)NC(=O)[C@H](CO)NC(=O)[C@H](CCCNC(=N)N)NC(=O)[C@H](Cc1c[nH]cn1)NC(=O)[C@H](CC(C)C)NC(=O)[C@H](Cc1ccccc1)NC(=O)[C@H](CCC(=O)O)NC(=O)[C@H](C)NC(=O)[C@H](CC(C)C)NC(=O)[C@H](CCCNC(=N)N)NC(=O)[C@H](CCC(=O)O)NC(=O)[C@@H](NC(=O)[C@H](C)NC(=O)[C@@H]1CSSC[C@H](NC(=O)[C@H](CCCNC(=N)N)NC(=O)CC[C@H](NC(=O)CCCCCCCCCCCCCCCCCCC(=O)O)C(=O)O)C(=O)N[C@@H](CCC(=O)O)C(=O)N[C@@H]([C@@H](C)O)C(=O)N[C@@H](C)C(=O)N[C@@H]([C@@H](C)O)C(=O)N1)[C@@H](C)O [Compound 134, [19CD]-isoGlu-RC()ETATC()ATERLAEFLHRSSSSF-Gly(Me)-A-Ile(Me)-LSSTEVGSETP-NH2] ({C20 diacid-γGlu}-RCETATCATERLAEFLHRSSSSF[Sar]A[NMeI]LSSTEVGSETP-NH2; disulfide 2-7)
2 | 0.19 nM | FND | FND | FND | CC[C@H](C)[C@@H](C(=O)N[C@@H](CC(C)C)C(=O)N[C@@H](CO)C(=O)N[C@@H](CO)C(=O)N[C@H](C(=O)N[C@@H](CCC(=O)O)C(=O)N[C@H](C(=O)NCC(=O)N[C@@H](CO)C(=O)N[C@@H](CCC(=O)O)C(=O)N[C@H](C(=O)N1CCC[C@H]1C(N)=O)[C@@H](C)O)C(C)C)[C@@H](C)O)N(C)C(=O)[C@H](C)NC(=O)CN(C)C(=O)[C@H](Cc1ccccc1)NC(=O)[C@H](CO)NC(=O)[C@H](CO)NC(=O)[C@H](CCCNC(=N)N)NC(=O)[C@H](Cc1c[nH]cn1)NC(=O)[C@H](CC(C)C)NC(=O)[C@H](Cc1ccccc1)NC(=O)[C@H](CCC(=O)O)NC(=O)[C@H](C)NC(=O)[C@H](CC(C)C)NC(=O)[C@H](CCCNC(=N)N)NC(=O)[C@H](CCC(=O)O)NC(=O)[C@@H](NC(=O)[C@H](C)NC(=O)[C@@H]1CSSC[C@H](NC(=O)[C@H](Cc2c[nH]c3ccccc23)NC(=O)CC[C@H](NC(=O)CCCCCCCCCCCCCCCCCCC(=O)O)C(=O)O)C(=O)NCC(=O)N[C@@H]([C@@H](C)O)C(=O)N[C@@H](C)C(=O)N[C@@H]([C@@H](C)O)C(=O)N1)[C@@H](C)O [Compound 161, [19CD]-isoGlu-WC()GTATC()ATERLAEFLHRSSF-Gly(Me)-A-Ile(Me)-LSSTEVGSETP-NH2] ({C20 diacid-γGlu}-WCGTATCATERLAEFLHRSSF[Sar]A[NMeI]LSSTEVGSETP-NH2; disulfide 2-7)
3 | 0.14 nM | FND | FND | FND | CC[C@H](C)[C@@H](C(=O)N[C@@H](CC(C)C)C(=O)N[C@@H](CO)C(=O)N[C@@H](CO)C(=O)N[C@H](C(=O)N[C@@H](CCC(=O)O)C(=O)N[C@H](C(=O)NCC(=O)N[C@@H](CO)C(=O)N[C@@H](CCC(=O)O)C(=O)N[C@H](C(=O)N1CCC[C@H]1C(N)=O)[C@@H](C)O)C(C)C)[C@@H](C)O)N(C)C(=O)[C@H](C)NC(=O)CN(C)C(=O)[C@H](Cc1ccccc1)NC(=O)[C@H](CO)NC(=O)[C@H](CO)NC(=O)[C@H](CCCNC(=N)N)NC(=O)[C@H](Cc1c[nH]cn1)NC(=O)[C@H](CC(C)C)NC(=O)[C@H](Cc1ccccc1)NC(=O)[C@H](CCC(=O)O)NC(=O)[C@H](C)NC(=O)[C@H](CC(C)C)NC(=O)[C@H](CCCNC(=N)N)NC(=O)[C@H](CCC(=O)O)NC(=O)[C@@H](NC(=O)[C@H](C)NC(=O)[C@@H]1CSSC[C@H](NC(=O)[C@H](CCCNC(=N)N)NC(=O)CC[C@H](NC(=O)CCCCCCCCCCCCCCCCCCC(=O)O)C(=O)O)C(=O)NCC(=O)N[C@@H]([C@@H](C)O)C(=O)N[C@@H](C)C(=O)N[C@@H]([C@@H](C)O)C(=O)N1)[C@@H](C)O [Compound 162, [19CD]-isoGlu-RC()GTATC()ATERLAEFLHRSSF-Gly(Me)-A-Ile(Me)-LSSTEVGSETP-NH2] ({C20 diacid-γGlu}-RCGTATCATERLAEFLHRSSF[Sar]A[NMeI]LSSTEVGSETP-NH2; disulfide 2-7)
4 | 0.11 nM | FND | FND | FND | CC[C@H](C)[C@@H](C(=O)N[C@@H](CC(C)C)C(=O)N[C@@H](CO)C(=O)N[C@@H](CO)C(=O)N[C@H](C(=O)N[C@@H](CCC(=O)O)C(=O)N[C@H](C(=O)NCC(=O)N[C@@H](CO)C(=O)N[C@@H](CCC(=O)O)C(=O)N[C@H](C(=O)N1C[C@H](O)C[C@H]1C(N)=O)[C@@H](C)O)C(C)C)[C@@H](C)O)N(C)C(=O)[C@H](C)NC(=O)CN(C)C(=O)[C@H](Cc1ccccc1)NC(=O)[C@H](CO)NC(=O)[C@H](CO)NC(=O)[C@H](CCCNC(=N)N)NC(=O)[C@H](Cc1c[nH]cn1)NC(=O)[C@H](CC(C)C)NC(=O)[C@H](Cc1ccccc1)NC(=O)[C@H](CCC(=O)O)NC(=O)[C@H](C)NC(=O)[C@H](CC(C)C)NC(=O)[C@H](CCCNC(=N)N)NC(=O)[C@H](CCC(=O)O)NC(=O)[C@@H](NC(=O)[C@H](C)NC(=O)[C@@H]1CSSC[C@H](NC(=O)[C@H](CCCNC(=N)N)NC(=O)CC[C@H](NC(=O)CCCCCCCCCCCCCCCCCCC(=O)O)C(=O)O)C(=O)NCC(=O)N[C@@H]([C@@H](C)O)C(=O)N[C@@H](C)C(=O)N[C@@H]([C@@H](C)O)C(=O)N1)[C@@H](C)O [Compound 166, [19CD]-isoGlu-RC()GTATC()ATERLAEFLHRSSF-Gly(Me)-A-Ile(Me)-LSSTEVGSET-Hyp-NH2] ({C20 diacid-γGlu}-RCGTATCATERLAEFLHRSSF[Sar]A[NMeI]LSSTEVGSET[Hyp]-NH2; disulfide 2-7)
